From US20220033396A1, “FURTHER HETEROAROMATIC COMPOUNDS HAVING ACTIVITY AGAINST RSV” (priority 2018, published 2022)

How the values were obtained:
rgRSV224 virus = experiment: microbe, parasite or virus in culture; type: cell-based; conditions: human respiratory syncytial virus, 72 h; rgRSV224 virus (MOI=1), HeLa cells, GFP expression three days post-virus exposure; averaged data of several repeat experiments; read-out: RSV HELA EC50
in vitro = conditions: human

Row | SMILES | EC50 (rgRSV224 virus) [µM] | CC50 at 3 days (in vitro) [µM]
1 | C[C@@H]1c2ccccc2CCN1C(=O)c1cc(N(C)C)c2nc(-c3ccc(N4CC[C@H](C(N)=O)C4)cc3F)cn2c1 [Compound 19, (3S)-1-{4-[8-(Dimethylamino)-6-[(1R)-1-methyl-1,2,3,4-tetrahydroisoquinoline-2-carbonyl]imidazo[1,2-a]pyridin-2-yl]-3-fluorophenyl}pyrrolidine-3-carboxylamide] | 0.141 | 43.9
2 | C[C@@H]1c2ccccc2CCN1C(=O)c1cc(C2CC2)c2nc(-c3ccc(N4C[C@H](O)[C@@H](O)C4)cc3F)cn2n1 [Compound 51, (8-cyclopropyl-2-(4-((3 S,4 S)-3,4-dihydroxypyrrolidin-1-yl)-2-fluorophenyl)imidazo[1,2-b]pyridazin-6-yl)((R)-1-methyl-3,4-dihydroisoquinolin-2(1H)-yl)methanone] | 0.013 | 38
3 | CC1c2ccsc2CCN1C(=O)c1cc(C2CC2)c2nc(-c3ccc(NC(=O)N4CC[C@@H](O)C4)cc3F)cn2n1 (single isomer, unassigned) [Compound 38, (R)-N-(4-(8-cyclopropyl-6-((R*)-4-methyl-4,5,6,7-tetrahydrothieno[3,2-c]pyridine-5-carbonyl)imidazo[1,2-b]pyridazin-2-yl)-3-fluorophenyl)-3-hydroxypyrrolidine-1-carboxamide] | 0.012 | 35.9
4 | C[C@@H]1c2ccccc2CCN1C(=O)c1cc(C2CC2)c2nc(-c3ccc(-n4cc(C(=O)O)cn4)cc3F)cn2c1 [Compound 25, 1-(4-{8-Cyclopropyl-6-[(1R)-1-methyl-1,2,3,4-tetrahydroisoquinoline-2-carbonyl]imidazo[1,2-a]pyridin-2-yl}-3-fluorophenyl)-1H-pyrazole-4-carboxylic Acid] | 0.369 | 51.3
5 | C[C@@H]1c2ccccc2CCN1C(=O)c1cc(C2CC2)c2nc(-c3ccc(NC(=O)N4CC[C@@H](O)C4)cc3F)cn2c1 [Compound 5, (3R)-N-(4-{8-Cyclopropyl-6-[(1R)-1-methyl-1,2,3,4-tetrahydroisoquinoline-2-carbonyl]imidazo[1,2-a]pyridin-2-yl}-3-fluorophenyl)-3-hydroxypyrrolidine-1-carboxamide] | 0.048 | 40.1
6 | C[C@@H]1c2ccccc2CCN1C(=O)c1cc(C2CC2)c2nc(-c3ccc(-n4cc(C(N)=O)cn4)cc3F)cn2c1 [Compound 26, 1-(4-{8-Cyclopropyl-6-[(1R)-1-methyl-1,2,3,4-tetrahydroisoquinoline-2-carbonyl]imidazo[1,2-a]pyridin-2-yl}-3-fluorophenyl)-1H-pyrazole-4-carboxamide] | 0.202 | 42.7
7 | CCc1cc(C(=O)N2CCc3ccccc3[C@H]2C)nn2cc(-c3ccc(N4C[C@H](O)[C@@H](O)C4)cc3F)nc12 [Compound 34, (2-(4-((3 S,4 S)-3,4-dihydroxypyrrolidin-1-yl)-2-fluorophenyl)-8-ethylimidazo[1,2-b]pyridazin-6-yl)((R)-1-methyl-3,4-dihydroisoquinolin-2(1H)-yl)methanone] | 0.012 | 24.5
8 | C[C@@H]1c2ccccc2CCN1C(=O)c1cn2cc(-c3ccc(N4C[C@H](O)[C@@H](O)C4)cc3F)nc2c(C2CC2)n1 [Compound 48, (8-cyclopropyl-2-(4-((3 S,4 S)-3,4-dihydroxypyrrolidin-1-yl)-2-fluorophenyl)imidazo[1,2-a]pyrazin-6-yl)((R)-1-methyl-3,4-dihydroisoquinolin-2(1H)-yl)methanone] | 3.77 | 58.8
9 | C[C@@H]1c2ccccc2CCN1C(=O)c1cc(C2CC2)c2nc(-c3ccc(C(=O)O)cc3F)cn2c1 [Compound 1, 4-{8-Cyclopropyl-6-[(1R)-1-methyl-1,2,3,4-tetrahydroisoquinoline-2-carbonyl]imidazo[1,2-a]pyridin-2-yl}-3-fluorobenzoic Acid] | 0.51 | 60.4
10 | C[C@@H]1c2ccccc2CCN1C(=O)c1cc(C2CC2)c2nc(-c3ccc(N4CC[C@H](C(N)=O)C4)nc3F)cn2c1 [Compound 22, (3S)-1-(5-{8-Cyclopropyl-6-[(1R)-1-methyl-1,2,3,4-tetrahydroisoquinoline-2-carbonyl]imidazo[1,2-a]pyridin-2-yl}-6-fluoropyridin-2-yl)pyrrolidine-3-carboxamide] | 0.171 | 37.4
11 | C[C@@H]1c2ccccc2CCN1C(=O)c1cc(N2CCCC2)c2nc(-c3ccc(N4CC[C@H](C(N)=O)C4)cc3F)cn2c1 [Compound 20, (3S)-1-(3-Fluoro-4-{6-[(1R)-1-methyl-1,2,3,4-tetrahydroisoquinoline-2-carbonyl]-8-(pyrrolidin-1-yl)imidazo[1,2-a]pyridin-2-yl}phenyl)pyrrolidine-3-carboxamide] | 0.149 | > 100
12 | C[C@@H]1c2ccccc2CCN1C(=O)c1cc(C2CC2)c2nc(-c3ccc(C4C[C@@H]4C(N)=O)cc3F)cn2c1 (relative stereo) [Compound 7, Trans 2-(4-{8-Cyclopropyl-6-[(1R)-1-methyl-1,2,3,4-tetrahydroisoquinoline-2-carbonyl]imidazo[1,2-a]pyridin-2-yl}-3-fluorophenyl)cyclopropane-1-carboxamide] | 0.184 | 65.4
13 | C[C@@H]1c2ccsc2CCN1C(=O)c1cc(-c2cccnc2)c2nc(-c3ccc(N4CC[C@H](C(N)=O)C4)cc3F)cn2c1 (single isomer, unassigned) [Compound 18, (3S)-1-(3-Fluoro-4-{6-[(4*R)-4-methyl-4,5,6,7-tetrahydro-thieno[3,2-c]pyridine-5-carbonyl]-8-(pyridin-3-yl)imidazo[1,2-a]pyridin-2-yl}phenyl)pyrrolidine-3-carboxamide] | 0.108 | 21.7
14 | C[C@@H]1c2ccccc2CCN1C(=O)c1cc(-c2cccnc2)c2nc(-c3ccc(N4CC[C@H](C(N)=O)C4)cc3F)cn2c1 [Compound 17, (3S)-1-(3-Fluoro-4-{6-[(1R)-1-methyl-1,2,3,4-tetrahydroisoquinoline-2-carbonyl]-8-(pyridin-3-yl)imidazo[1,2-a]pyridin-2-yl}phenyl)pyrrolidine-3-carboxamide] | 0.163 | 44.3
15 | C[C@@H]1c2ccccc2CCN1C(=O)c1cc(-c2ccccc2)c2nc(-c3ccc(N4CC[C@H](C(N)=O)C4)cc3F)cn2c1 [Compound 16, (3S)-1-(3-Fluoro-4-{6-[(1R)-1-methyl-1,2,3,4-tetrahydroisoquinoline-2-carbonyl]-8-phenylimidazo[1,2-a]pyridin-2-yl}phenyl)pyrrolidine-3-carboxamide] | 0.186 | 93.6
16 | C[C@@H]1c2ccccc2CCN1C(=O)c1cc(C2CC2)c2nc(-c3ccc(N4CC[C@H](C(=O)O)C4)cc3F)cn2c1 [Compound 9, (3S)-1-(4-{8-Cyclopropyl-6-[(1R)-1-methyl-1,2,3,4-tetrahydroisoquinoline-2-carbonyl]imidazo[1,2-a]pyridin-2-yl}-3-fluorophenyl)pyrrolidine-3-carboxylic Acid] | 0.045 | 68.4
17 | CNC(=O)[C@H]1CCN(c2ccc(-c3cn4cc(C(=O)N5CCc6sccc6[C@H]5C)cc(C5CC5)c4n3)c(F)c2)C1 (single isomer, unassigned) [Compound 14, (3S)-1-(4-{8-Cyclopropyl-6-[(4*R)-4-methyl-4,5,6,7-tetrahydro-thieno[3,2-c]pyridine-5-carbonyl]imidazo[1,2-a]pyridin-2-yl}-3-fluorophenyl)-N-methylpyrrolidine-3-carboxamide] | 0.084 | > 100
18 | C[C@@H]1c2ccccc2CCN1C(=O)c1cc(C2CC2)c2nc(-c3ccc(N4CC(O)C4)cc3F)cn2c1 [Compound 27, 1-(4-{8-Cyclopropyl-6-[(1R)-1-methyl-1,2,3,4-tetrahydroisoquinoline-2-carbonyl]imidazo[1,2-a]pyridin-2-yl}-3-fluorophenyl)azetidin-3-ol] | 0.119 | 98.1
19 | C[C@@H]1c2ccccc2CCN1C(=O)c1cc(C2CC2)c2nc(-c3ccc(C(N)=O)cc3F)cn2c1 [Compound 2, 4-{8-Cyclopropyl-6-[(1R)-1-methyl-1,2,3,4-tetrahydroisoquinoline-2-carbonyl]imidazo[1,2-a]pyridin-2-yl}-3-fluorobenzamide] | 0.072 | 54
20 | CCc1cc(C(=O)N2CCc3ccccc3[C@H]2C)nn2cc(-c3ccc4c(c3F)OCC(C(N)=O)=C4)nc12 [Compound 46, (R)-7-(8-ethyl-6-(1-methyl-1,2,3,4-tetrahydroisoquinoline-2-carbonyl)imidazo[1,2-b]pyridazin-2-yl)-8-fluoro-2H-chromene-3-carboxamide] | 0.054 | > 100
21 | C[C@@H]1c2ccccc2CCN1C(=O)c1cc(C2CC2)c2nc(-c3ccc(NC(=O)N4CC(O)C4)cc3F)cn2c1 [Compound 30, (R)-N-(4-(8-cyclopropyl-6-(1-methyl-1,2,3,4-tetrahydroisoquinoline-2-carbonyl)imidazo[1,2-a]pyridin-2-yl)-3-fluorophenyl)-3-hydroxyazetidine-1-carboxamide] | 0.089 | 43.4
22 | C[C@@H]1c2ccccc2CCN1C(=O)c1cc(C2CC2)c2nc(-c3ccc(N4CC(C(=O)NS(C)(=O)=O)C4)cc3F)cn2c1 [Compound 28, 1-(4-{8-Cyclopropyl-6-[(1R)-1-methyl-1,2,3,4-tetrahydroisoquinoline-2-carbonyl]imidazo[1,2-a]pyridin-2-yl}-3-fluorophenyl)-N-methanesulfonylazetidine-3-carboxamide] | 3.11 | > 100
23 | C[C@@H]1CCCCCN1C(=O)c1cc(C2CC2)c2nc(-c3ccc(N4CC[C@H](C(N)=O)C4)cc3F)cn2c1 [Compound 15, (3S)-1-(4-{8-Cyclopropyl-6-[(2R)-2-methylazepane-1-carbonyl]imidazo[1,2-a]pyridin-2-yl}-3-fluorophenyl)pyrrolidine-3-carboxamide] | 1.07 | 13.2
